What was measured:
[1] = biological target: T1, EGFR L858R (Homo sapiens, UniProt P00533, L858R); test: Biochemical EGFR inhibition assay (Caliper mobility shift), EGFR L858R; details: biochemical Caliper mobility shift assay, EGFR L858R enzyme; read-out: Enz EGFR L858R IC50
T1 construct: purchased SignalChem E10-122BG
How it was run: (§1)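 Apparent IC50 from Caliper separation of phospho-peptide from substrate. Conditions: 2.5 µM 5-FAM peptide, 1.0 mM ATP or ATP Km, pH 7.5 HEPES buffer, room temperature, 10–20% conversion, EDTA stop.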

[2] = biological target: T2, EGFR (d746-750) (Homo sapiens, UniProt P00533, DEL746-750); test: Biochemical EGFR inhibition assay (Caliper mobility shift), EGFR (d746-750); details: biochemical Caliper mobility shift assay, EGFR Exon 19-del enzyme; read-out: Enz EGFR Exon 19-del IC50
T2 construct: purchased SignalChem E10-122JG
How it was run: as §1

[3] = biological target: intracellular phosphorylation of EGFR (Tyr1068) in PC-9 cells (Homo sapiens, UniProt P00533, DEL746-750); test: PC-9 pEGFR AlphaLISA assay; assay type: cell-based; details: 4 hours incubation, read-out: Phos EGFR PC9 IC50
How it was run: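 PC-9 cells (EGFR del746-750) in phenol-free DMEM/10% FBS, adhered overnight, then exposed to 10-point 4-fold compound dilutions for 4 h at 37 °C. Lysates assayed for pEGFR Tyr1068 by AlphaLISA SureFire Ultra; IC50 from percent pEGFR inhibition vs log concentration.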

Chain of intracellular phosphorylation of EGFR (Tyr1068) in PC-9 cells (P00533 with tags, fused parts or gaps DEL746-750): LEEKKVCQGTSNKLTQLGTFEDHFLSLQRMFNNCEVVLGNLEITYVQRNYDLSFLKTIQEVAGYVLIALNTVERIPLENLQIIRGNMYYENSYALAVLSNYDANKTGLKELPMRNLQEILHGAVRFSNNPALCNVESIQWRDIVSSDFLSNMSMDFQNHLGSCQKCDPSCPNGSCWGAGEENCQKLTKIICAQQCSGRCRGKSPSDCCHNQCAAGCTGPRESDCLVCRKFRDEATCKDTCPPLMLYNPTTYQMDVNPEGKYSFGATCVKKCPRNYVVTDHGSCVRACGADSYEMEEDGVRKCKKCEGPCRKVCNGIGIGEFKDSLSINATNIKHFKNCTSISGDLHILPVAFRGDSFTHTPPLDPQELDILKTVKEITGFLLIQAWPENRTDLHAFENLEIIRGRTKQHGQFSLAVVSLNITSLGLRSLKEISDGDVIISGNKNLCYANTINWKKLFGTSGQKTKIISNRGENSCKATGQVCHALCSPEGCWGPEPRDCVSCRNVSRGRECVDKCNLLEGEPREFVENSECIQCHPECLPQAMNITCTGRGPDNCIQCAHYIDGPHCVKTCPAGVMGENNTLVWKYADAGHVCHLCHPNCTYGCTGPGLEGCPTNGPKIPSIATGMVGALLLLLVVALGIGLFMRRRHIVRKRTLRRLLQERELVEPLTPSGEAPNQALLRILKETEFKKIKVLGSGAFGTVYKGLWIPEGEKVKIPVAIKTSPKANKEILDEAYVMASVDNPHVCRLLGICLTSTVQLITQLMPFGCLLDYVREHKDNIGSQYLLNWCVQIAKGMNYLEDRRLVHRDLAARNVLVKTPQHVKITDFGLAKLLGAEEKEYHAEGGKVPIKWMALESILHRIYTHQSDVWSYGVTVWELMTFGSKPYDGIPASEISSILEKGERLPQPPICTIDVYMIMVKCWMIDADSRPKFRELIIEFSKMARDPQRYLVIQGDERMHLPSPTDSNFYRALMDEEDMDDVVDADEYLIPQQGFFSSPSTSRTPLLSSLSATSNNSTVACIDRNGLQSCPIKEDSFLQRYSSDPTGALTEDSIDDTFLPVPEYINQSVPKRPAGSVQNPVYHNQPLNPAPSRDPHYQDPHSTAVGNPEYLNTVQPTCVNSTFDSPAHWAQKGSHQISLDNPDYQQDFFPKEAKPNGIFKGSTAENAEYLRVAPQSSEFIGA
T1 sequence (P00533 25-1210 L858R): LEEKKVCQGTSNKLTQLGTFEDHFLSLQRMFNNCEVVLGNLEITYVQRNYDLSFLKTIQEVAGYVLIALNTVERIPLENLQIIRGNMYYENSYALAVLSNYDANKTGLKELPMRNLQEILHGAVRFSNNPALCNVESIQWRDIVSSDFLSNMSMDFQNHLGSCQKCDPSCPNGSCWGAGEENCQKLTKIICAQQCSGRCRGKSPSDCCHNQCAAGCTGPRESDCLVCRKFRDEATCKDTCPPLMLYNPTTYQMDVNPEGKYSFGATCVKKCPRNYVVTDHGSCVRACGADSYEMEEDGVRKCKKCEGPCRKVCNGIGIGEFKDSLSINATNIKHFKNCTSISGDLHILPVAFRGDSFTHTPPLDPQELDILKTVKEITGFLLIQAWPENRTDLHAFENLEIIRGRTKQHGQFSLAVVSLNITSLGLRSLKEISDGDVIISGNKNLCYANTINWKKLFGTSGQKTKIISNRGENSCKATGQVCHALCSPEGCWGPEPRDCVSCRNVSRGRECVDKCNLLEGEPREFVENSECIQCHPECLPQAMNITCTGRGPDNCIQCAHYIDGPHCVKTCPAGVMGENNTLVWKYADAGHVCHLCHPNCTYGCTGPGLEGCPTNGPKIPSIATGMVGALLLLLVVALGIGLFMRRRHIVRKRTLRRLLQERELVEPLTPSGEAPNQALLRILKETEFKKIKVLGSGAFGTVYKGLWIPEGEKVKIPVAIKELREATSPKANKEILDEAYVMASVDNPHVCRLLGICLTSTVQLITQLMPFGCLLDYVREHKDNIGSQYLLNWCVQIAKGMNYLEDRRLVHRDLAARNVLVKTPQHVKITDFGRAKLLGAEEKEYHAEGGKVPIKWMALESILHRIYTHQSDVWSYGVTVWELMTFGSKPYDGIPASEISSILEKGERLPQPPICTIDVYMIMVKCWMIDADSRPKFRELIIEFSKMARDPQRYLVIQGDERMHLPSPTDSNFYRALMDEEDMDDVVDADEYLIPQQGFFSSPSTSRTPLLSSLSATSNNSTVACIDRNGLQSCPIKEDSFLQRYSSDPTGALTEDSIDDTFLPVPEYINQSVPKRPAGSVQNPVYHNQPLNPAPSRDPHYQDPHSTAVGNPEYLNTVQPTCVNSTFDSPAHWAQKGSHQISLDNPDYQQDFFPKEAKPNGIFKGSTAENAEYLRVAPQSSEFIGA
T2 sequence (P00533 with tags, fused parts or gaps DEL746-750 limits assumed): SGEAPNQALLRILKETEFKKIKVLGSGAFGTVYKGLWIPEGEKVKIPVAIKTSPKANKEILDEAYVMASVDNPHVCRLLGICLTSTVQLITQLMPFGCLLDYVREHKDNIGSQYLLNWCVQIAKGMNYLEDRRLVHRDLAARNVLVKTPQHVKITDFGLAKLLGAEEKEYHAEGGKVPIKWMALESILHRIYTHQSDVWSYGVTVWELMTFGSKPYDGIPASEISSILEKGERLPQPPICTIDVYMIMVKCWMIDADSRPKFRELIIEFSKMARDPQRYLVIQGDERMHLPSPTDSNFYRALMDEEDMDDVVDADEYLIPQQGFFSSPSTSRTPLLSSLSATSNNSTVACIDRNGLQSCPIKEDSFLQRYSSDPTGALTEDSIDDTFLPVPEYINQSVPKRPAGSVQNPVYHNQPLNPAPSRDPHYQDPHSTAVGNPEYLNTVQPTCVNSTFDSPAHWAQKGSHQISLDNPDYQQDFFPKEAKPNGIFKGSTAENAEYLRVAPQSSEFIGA

Structure (SMILES) | IC50 [1] | IC50 [2] | IC50 [3]
C[C@@H]1CN(c2cc(O[C@H](C)C3COC3)c3c(Nc4ccc5ncsc5c4F)ncnc3c2)CCN1C (single isomer, unassigned) [Example 103] | 0.0101 to 0.05 µM | ≤ 0.01 µM | ≤ 0.01 µM
C[C@@H]1CNCCN1c1cc(O[C@H](C)C2COC2)c2c(Nc3ccc4ncsc4c3F)ncnc2c1 (single isomer, unassigned) [Example 104] | ≤ 0.01 µM | ≤ 0.01 µM | 0.0101 to 0.05 µM
C[C@@H]1CNCCN1c1cc(O[C@H](C)C2COC2)c2c(Nc3ccc4ncsc4c3F)ncnc2c1 (single isomer, unassigned) [Example 105] | 0.0101 to 0.05 µM | ≤ 0.01 µM | 0.0101 to 0.05 µM
C[C@@H]1CN(C)CCN1c1cc(O[C@H](C)C2COC2)c2c(Nc3ccc4ncsc4c3F)ncnc2c1 (single isomer, unassigned) [Example 106, N-(7-((R)-2,4-dimethylpiperazin-1-yl)-5-((R)-1-(oxetan-3-yl)ethoxy)quinazolin-4-yl)-7-fluorobenzo[d]thiazol-6-amine or N-(7-((R)-2,4-dimethylpiperazin-1-yl)-5-((S)-1-(oxetan-3-yl)ethoxy)quinazolin-4-yl)-7-fluorobenzo[d]thiazol-6-amine] | ≤ 0.01 µM | ≤ 0.01 µM | 0.0101 to 0.05 µM
C[C@@H]1CN(C)CCN1c1cc(O[C@H](C)C2COC2)c2c(Nc3ccc4ncsc4c3F)ncnc2c1 (single isomer, unassigned) [Example 107, N-(7-((R)-2,4-dimethylpiperazin-1-yl)-5-((R)-1-(oxetan-3-yl)ethoxy)quinazolin-4-yl)-7-fluorobenzo[d]thiazol-6-amine or N-(7-((R)-2,4-dimethylpiperazin-1-yl)-5-((S)-1-(oxetan-3-yl)ethoxy)quinazolin-4-yl)-7-fluorobenzo[d]thiazol-6-amine] | 0.0101 to 0.05 µM | ≤ 0.01 µM | 0.0101 to 0.05 µM
COCC[C@@H](C)Oc1cc(-c2cnn(C)c2)cc2ncnc(Nc3ccc4ncsc4c3F)c12 (single isomer, unassigned) [Example 108] | ≤ 0.01 µM | ≤ 0.01 µM | ≤ 0.01 µM
C[C@@H](Oc1cc(-c2cnn(C)c2)cc2ncnc(Nc3ccc4ncsc4c3F)c12)C1CCOCC1 (single isomer, unassigned) [Example 110] | ≤ 0.01 µM | ≤ 0.01 µM | 0.0101 to 0.05 µM
C[C@@H](Oc1cc(-c2cnn(C)c2)cc2ncnc(Nc3ccc4ncsc4c3F)c12)C1CCOCC1 (single isomer, unassigned) [Example 111] | ≤ 0.01 µM | ≤ 0.01 µM | ≤ 0.01 µM
COc1cn(C)nc1-c1cc(O[C@H](C)C2COC2)c2c(Nc3ccc4ncsc4c3)ncnc2c1 (single isomer, unassigned) [Example 120] | ≤ 0.01 µM | ≤ 0.01 µM | ≤ 0.01 µM
COc1cn(C)nc1-c1cc(O[C@H](C)C2COC2)c2c(Nc3ccc4ncsc4c3)ncnc2c1 (single isomer, unassigned) [Example 121] | ≤ 0.01 µM | ≤ 0.01 µM | 0.0101 to 0.05 µM
CC(Oc1cc(-c2cn[nH]c2)cc2ncnc(Nc3ccc4ncsc4c3)c12)C1COC1 (single isomer, unassigned) [Example 122] | ≤ 0.01 µM | ≤ 0.01 µM | ≤ 0.01 µM
C[C@@H](Oc1cc(-c2cnn(CC(C)(C)O)c2)cc2ncnc(Nc3ccc4ncsc4c3)c12)C1COC1 (single isomer, unassigned) [Example 127] | ≤ 0.01 µM | ≤ 0.01 µM | ≤ 0.01 µM
Cn1cc(-c2cc(OC[C@]34COC[C@H]3C4)c3c(Nc4ccc5ncsc5c4)ncnc3c2)cn1 (single isomer, unassigned) [Example 147] | 0.0101 to 0.05 µM | ≤ 0.01 µM | 0.0101 to 0.05 µM
Cn1cc(-c2cc(OC[C@]34COC[C@H]3C4)c3c(Nc4ccc5ncsc5c4)ncnc3c2)cn1 (single isomer, unassigned) [Example 148] | ≤ 0.01 µM | ≤ 0.01 µM | 0.0101 to 0.05 µM
CN(C)[C@H]1CC[C@@H]1Oc1cc(-c2cnn(C)c2)cc2ncnc(Nc3ccc4ncsc4c3)c12 (single isomer, unassigned) [Example 154] | ≤ 0.01 µM | ≤ 0.01 µM | ≤ 0.01 µM
CN1CC[C@@H](F)[C@@H](Oc2cc(-c3cnn(C)c3)cc3ncnc(Nc4ccc5ncsc5c4)c23)C1 (single isomer, unassigned) [Example 161] | ≤ 0.01 µM | ≤ 0.01 µM | ≤ 0.01 µM
CN1CC[C@@H](F)[C@@H](Oc2cc(-c3cnn(C)c3)cc3ncnc(Nc4ccc5ncsc5c4)c23)C1 (single isomer, unassigned) [Example 162] | ≤ 0.01 µM | ≤ 0.01 µM | 0.0101 to 0.05 µM
COc1cc2ncnc(Nc3ccc4ncsc4c3)c2cc1-c1cnn(C2CCN(C)C[C@H]2F)c1 (single isomer, unassigned) [Example 166] | ≤ 0.01 µM | ≤ 0.01 µM | ≤ 0.01 µM
COc1cc2ncnc(Nc3ccc4ncsc4c3)c2cc1-c1cnn(C2CCN(C)C[C@H]2F)c1 (single isomer, unassigned) [Example 167] | 0.0101 to 0.05 µM | ≤ 0.01 µM | 0.0101 to 0.05 µM
COc1nn(C)cc1-c1cc(O[C@H](C)C2COC2)c2c(Nc3ccc4ncsc4c3)ncnc2c1 (single isomer, unassigned) [Example 170] | ≤ 0.01 µM | ≤ 0.01 µM | ≤ 0.01 µM

Further lines, results first:

IC50 [1] | IC50 [2] | IC50 [3] | Structure (SMILES)
> 0.0501 µM | 0.0101 to 0.05 µM | > 0.0501 µM | C[C@@H](CN(C)C)Oc1cc(N2CCN(C)CC2)cc2ncnc(Nc3ccc4ncsc4c3)c12 (single isomer, unassigned) [Example 116]
0.0101 to 0.05 µM | 0.0101 to 0.05 µM | 0.0101 to 0.05 µM | C[C@@H](CN(C)C)Oc1cc(N2CCN(C)CC2)cc2ncnc(Nc3ccc4ncsc4c3)c12 (single isomer, unassigned) [Example 117]
≤ 0.01 µM | ≤ 0.01 µM | ≤ 0.01 µM | COC[C@H](C)Oc1cc(N2CCN(C(C)C)C2=O)cc2ncnc(Nc3ccc4ncsc4c3)c12 (single isomer, unassigned) [Example 118]
≤ 0.01 µM | ≤ 0.01 µM | ≤ 0.01 µM | C[C@H]([C@@H](C)Oc1cc(-c2cnn(C)c2)cc2ncnc(Nc3ccc4ncsc4c3)c12)N(C)C (single isomer, unassigned) [Example 143]
0.0101 to 0.05 µM | ≤ 0.01 µM | 0.0101 to 0.05 µM | C[C@@H](Oc1cc(-c2cnn(C)c2)cc2ncnc(Nc3ccc4ncsc4c3)c12)[C@H](C)N(C)C (single isomer, unassigned) [Example 144]
≤ 0.01 µM | ≤ 0.01 µM | ≤ 0.01 µM | C[C@@H](Oc1cc(-c2cnn(C)c2)cc2ncnc(Nc3ccc4ncsc4c3)c12)[C@H](C)N(C)C (single isomer, unassigned) [Example 145]
> 0.0501 µM | 0.0101 to 0.05 µM | 0.0101 to 0.05 µM | C[C@@H]1CN(c2cc(O[C@@H](C)CN(C)C)c3c(Nc4ccc5ncsc5c4)ncnc3c2)C[C@H](C)O1 (single isomer, unassigned) [Example 149]
0.0101 to 0.05 µM | ≤ 0.01 µM | ≤ 0.01 µM | CC(CN(C)C)Oc1cc(N2CC(C)OC(C)C2)cc2ncnc(Nc3ccc4ncsc4c3)c12 (single isomer, unassigned) [Example 150]
≤ 0.01 µM | ≤ 0.01 µM | ≤ 0.01 µM | CN(C)C[C@@H](Oc1cc(-c2cnn(C)c2)cc2ncnc(Nc3ccc4ncsc4c3)c12)C(F)F (single isomer, unassigned) [Example 151]
≤ 0.01 µM | ≤ 0.01 µM | ≤ 0.01 µM | C[C@H](CN(C)C)Oc1cc(N2CC[C@@H](C(C)(C)O)C2)cc2ncnc(Nc3ccc4ncsc4c3)c12 (single isomer, unassigned) [Example 155]
≤ 0.01 µM | ≤ 0.01 µM | ≤ 0.01 µM | C[C@H](Oc1cc(N2CCN(C)C2=O)cc2ncnc(Nc3ccc4ncsc4c3)c12)C1COC1 (single isomer, unassigned) [Example 157]
≤ 0.01 µM | ≤ 0.01 µM | 0.0101 to 0.05 µM | C[C@H](Oc1cc(N2CCN(C)C2=O)cc2ncnc(Nc3ccc4ncsc4c3)c12)C1COC1 (single isomer, unassigned) [Example 158]
0.0101 to 0.05 µM | ≤ 0.01 µM | 0.0101 to 0.05 µM | C[C@@H](CN(C)C)Oc1cc(-c2cnn(C)c2)cc2ncnc(Nc3ccc4ncsc4c3)c12 (single isomer, unassigned) [Example 159, (S)—N-(5-((1-(dimethylamino)propan-2-yl)oxy)-7-(1-methyl-1H-pyrazol-4-yl)quinazolin-4-yl)benzo[d]thiazol-6-amine or (R)—N-(5-((1-(dimethylamino)propan-2-yl)oxy)-7-(1-methyl-1H-pyrazol-4-yl)quinazolin-4-yl)benzo[d]thiazol-6-amine]
≤ 0.01 µM | ≤ 0.01 µM | ≤ 0.01 µM | C[C@@H](CN(C)C)Oc1cc(-c2cnn(C)c2)cc2ncnc(Nc3ccc4ncsc4c3)c12 (single isomer, unassigned) [Example 160, (R)—N-(5-((1-(dimethylamino)propan-2-yl)oxy)-7-(1-methyl-1H-pyrazol-4-yl)quinazolin-4-yl)benzo[d]thiazol-6-amine or (S)—N-(5-((1-(dimethylamino)propan-2-yl)oxy)-7-(1-methyl-1H-pyrazol-4-yl)quinazolin-4-yl)benzo[d]thiazol-6-amine]

Source: patent publication US20260207602A1, “EGFR INHIBITORS” (Blueprint Medicines Corporation, priority 2022, published 2026)
